Measured values from patent US20180030483A1, “PROCESS FOR PRODUCTION OF BIO-ALCOHOL” (DANISCO US INC., priority 2015, published 2018).
Where two headings read alike, the source gives them in different places.

Columns and labels:
Saccharomyces cerevisiae [1] = assay: Batch yeast fermentation in YEGM medium with added organic acid salt; type: cell-based; details: increasing concentration 0 to 1000 ppm; for increase in ethanol production: 32° C., until glucose less than 0.1% w/v; for yeast growth: biomass by OD660
Protocol: Yeast Extract Glucose media (YEGM): YEGM was prepared by dissolving 0.75 g Yeast Extract and 10 g dextrose dissolved in 100 ml tap water with pH in range […]. The media was then sterilized at 121° C. for 20 min.
The yeast biomass was measured using UV-Vis spectrophotometers (Shimadzu UV-1800) by diluting with YEGM to an OD660 in range of 0.2 to 0.8 with Milli-Q water.
Thereafter, the samples were analysed for alcohol and glycerol profile by HPLC and yeast biomass by UV Spectrophotometer.

Saccharomyces cerevisiae [2] = details: molasses media, 0 to 1000 ppm, 3 g active dry yeast, 32° C.
Protocol: Molasses Medium: The media was prepared by diluting 333 g molasses with water to final weight of 1000 g (w/w). To this 400 mg of urea was added as nitrogen source.
Saccharomyces cerevisiae was used in the form of active dry yeast at a concentration of 3% w/v or was pre-cultured by adding 6 g of active dry yeast into 100 ml YEGM in 250 ml Erlenmeyer's flask. The cultures were incubated at 32° C.±2° C. with mixing at 100 to 200 rpm to a final OD660 of 100±10. This culture was subsequently used as an inoculum for further fermentation studies at a concentration of 6% v/v.
The composition of the reaction products was measured by high pressure liquid chromatographic method (Agilent Isocratic system 1200, USA with RI detector) by injecting 20 μL of appropriately diluted samples onto a Aminex Column HPX-87H (catalogue number 1250140, Bio-Rad) maintained at 60° C. using 0.01N sulphuric acid as a mobile phase at a flow rate of 0.7 mL/min. The detection was carried out using Refractive index detector (RID).
Fermentation was carried out at 32° C.±2° C. in incubator shaker at 100-200 rpm. The fermentation was carried out until glucose value observed was less than 0.1% w/v. Thereafter, the samples were analysed for alcohol, organic acids, and glycerol profile by HPLC.
Batch fermentation was initiated by addition of sodium benzoate at a concentration ranging from 0 to 1000 ppm followed by 3 g of active dry yeast into 100 ml molasses media in 250 mL Erlenmeyer flasks. Fermentation was carried out in incubator shaker at 32° C.±2° C. at 100 to 200 rpm. Thereafter, the samples were analysed for alcohol, organic acids, and glycerol profile by HPLC.
Fermentation was carried out at 32° C.±2° C. in incubator shaker at 100 to 200 rpm. The fermentation was carried out until glucose value observed was less than 0.1% w/v. Thereafter, the samples were analysed for alcohol, organic acids, and glycerol profile by HPLC.

`C/C=C/C=C/C(=O)[O-].[K+]` [potassium sorbate] was tested, and the glycerol yield (Saccharomyces cerevisiae [1]) was “reduced”, the “increase in ethanol production” value (Saccharomyces cerevisiae [1]) was at least 6% and the yeast growth (Saccharomyces cerevisiae [1]) was “reduced”. The acetic acid yield (Saccharomyces cerevisiae [2]) was “reduced”, the ethanol production (Saccharomyces cerevisiae [2]) was “increased” and the glycerol yield (Saccharomyces cerevisiae [2]) was “reduced”.

For `O=C([O-])c1ccccc1.[Na+]` [sodium benzoate], the glycerol yield (Saccharomyces cerevisiae [1]) was “reduced”, the “increase in ethanol production” value (Saccharomyces cerevisiae [1]) was at least 6% and the yeast growth (Saccharomyces cerevisiae [1]) was “reduced”. For the same compound, the ethanol production (Saccharomyces cerevisiae [2]) was “increased” and the glycerol yield (Saccharomyces cerevisiae [2]) was “reduced”.
